Results: patent publication US20220323594A1, “LIPIDATED CATIONIC PEPTIDE-PEG COMPOSITIONS FOR NUCLEIC ACID DELIVERY” (NUTCRACKER THERAPEUTICS, INC., priority 2019, published 2022)
Like-named read-outs stand apart in the source and are kept apart here.

Experiments:
[1] = Dynamic light scattering (DLS) of mRNA/peptoid formulations: particle size and polydispersity; assay type: physicochemical; settings: Fluc mRNA/peptoid formulation; for Size PDI: size polydispersity index by DLS, 5:1 mass ratio; for Size (nm): volume average particle size/diameter by DLS, 5:1 mass ratio peptoid:cargo
Method: (§1) To prepare nanoparticle formulations, the amino lipidated peptoid is mixed by pipetting with nucleic acid at a mass ratio between approximately 1:1 (peptoid:cargo) and 20:1. Prior to formulation, amino lipidated peptoid and nucleic acid cargo were diluted in ethanol and acidic buffer (PBS adjusted to pH 5.5 with 0.1 M HCl) respectively to a volume ratio of 1:3 and to target a final cargo concentration of approximately 0.05 mg/mL to 0.2 mg/mL. The exemplary amino lipidated cationic peptoids described in Example 2 were combined with firefly luciferase (Fluc) mRNA to form nanoparticle compositions to be evaluated for therapeutic and/or prophylactic purposes in vitro or in vivo. The formulations were prepared according to the protocol of Example 3 and mixed by simple pipetting. The mRNA/peptoid formulation at a 5:1 mass ratio of peptoid:cargo were evaluated by dynamic light scattering (DLS) in order to determine the volume average particle size/diameter (nm) of the mRNA/peptoid complex and the size polydispersity index (PDI) within the formulation. The percentage of mRNA encapsulation for each formulation of the exemplary compounds were determined by fluorescence of the Qubit RNA HS (Invitrogen) dye before and after lysis of particles by Triton X-100.

[2] = mRNA encapsulation by fluorescence of Qubit RNA HS dye before and after lysis with Triton X-100; assay type: physicochemical; settings: percentage of mRNA encapsulation; Fluc mRNA/peptoid formulation, 5:1 mass ratio
Method: as §1, with “The” for “To prepare nanoparticle formulations, the amino lipidated peptoid is mixed by pipetting with nucleic acid at a mass ratio between approximately 1:1 (peptoid:cargo) and 20:1. Prior to formulation, amino lipidated peptoid and nucleic acid cargo were diluted in ethanol and acidic buffer (PBS adjusted to pH 5.5 with 0.1 M HCl) respectively to a volume ratio of 1:3 and to target a final cargo concentration of approximately 0.05 mg/mL to 0.2 mg/mL. The”

HeLa cells [3] = test: In vitro expression of firefly luciferase (Fluc) after treatment with Fluc mRNA/amino lipidated peptoid formulations, no PEG or 2% DMG-PEG2000; assay type: cell-based
Method: The efficacy of mRNA/amino lipidated peptoid formulations was evaluated in vitro based on their ability to deliver the firefly luciferase (Fluc) reporter gene to cultured cells. Amino lipidated peptoids were combined with Fluc mRNA at a 5:1 w/w ratio, and the resulting particles were added to cultured HeLa cells at a dose of 100 ng/well (in 100 μL total volume). The resulting luciferase expression (RLU) was measured by a luminescence plate reader after 6 hours and 24 hours of treatment. […] In addition to evaluating nanoparticle complexes formed between mRNA cargos and amino lipidated peptoids alone, multicomponent formulations containing a small amount of PEG-lipid DMG-PEG2000 were also tested for in vitro Fluc mRNA delivery. In these formulations, DMG-PEG2000 was pre-mixed with candidate peptoid at an overall 2% incorporation (w/w), while maintaining the same 5:1 mass ratio of peptoid:mRNA used previously.

HeLa cells [4] = test: In vitro Fluc expression with variable peptoid:mRNA mass ratio, 2% DMG-PEG2000; assay type: cell-based; settings: 24 h; for Observed Luciferase Expression (RLU) for Given Formulation Mass Ratio 2:1: 2% (w/w) DMG-PEG2000, peptoid:mRNA 2:1; for Observed Luciferase Expression (RLU) for Given Formulation Mass Ratio 3.5:1: 2% (w/w) DMG-PEG2000, peptoid:mRNA 3.5:1; for Observed Luciferase Expression (RLU) for Given Formulation Mass Ratio 5:1: 2% (w/w) DMG-PEG2000, peptoid:mRNA 5:1; for Observed Luciferase Expression (RLU) for Given Formulation Mass Ratio 7.5:1: 2% (w/w) DMG-PEG2000, peptoid:mRNA 7.5:1
Method: The charge ratio dependence of amino lipidated peptoid delivery vehicles was evaluated by formulating particles between Fluc mRNA and delivery vehicles at varying mass ratios. Formulations were varied between 2:1 and 7.5:1 peptoid:mRNA (w/w) ratios (2:1, 3.5:1, 5:1 and 7.5:1). In addition, the role of DMG-PEG2000 was also explored with the mass ratios, either by excluding DMG-PEG2000 or incorporating DMG-PEG2000 at 2% (w/w) relative to amino lipidated peptoid. Fluc expression from these formulations was measured in HeLa cells following treatment for 24 hours. […] FIGS. 6B and 6C show plots of the average bioluminescence (RLU) for HeLa cells treated with the formulations of exemplary amino lipidated cationic peptoid compounds 1-36, all formulated with 2% w/w DMG-PEG2000.

[5] = MTT viability assay after treatment with Fluc mRNA/amino lipidated peptoid formulations; assay type: cell-based; settings: human, HeLa cells
Method: Cellular viability was measured following treatment with Fluc mRNA/amino lipidated peptoid formulations by a traditional MTT viability assay. […] In this assay, cells were first treated with peptoid formulations at a final mRNA concentration of 100 ng/well for 8 hours. Cells were then left to grow for 48 hours, after which time they were exposed to 1.5 mg/mL 3-(4,5-dimethylthiazol-2-yl)-2,5-diphenyltetrazolium bromide (MTT) for 2 hours, then lysed using a solubilizing solution of 10% Triton-X 100 in acidic isopropanol (0.1N HCl). The signal corresponding to reduced formazan was normalized to untreated cells to provide a relative viability of each treated condition. […] In general, nearly all conditions maintained at least 80% viability with the only exceptions being formulations of compound 5, 34, and 35.

[6] = no PEG, peptoid:Fluc mRNA 5:1 w/w, 100 ng/well, 6 h of treatment
[7] = no PEG, peptoid:Fluc mRNA 5:1 w/w, 100 ng/well, 24 h of treatment
[8] = with 2% (w/w) DMG-PEG2000, peptoid:mRNA 5:1, 6 h after treatment
[9] = with 2% (w/w) DMG-PEG2000, peptoid:mRNA 5:1, 24 h after treatment
[10] = MTT, 2% (w/w) DMG-PEG2000, 5:1 mass ratio, 100 ng/well mRNA for 8 h then 48 h growth, normalized to untreated cells, read-out: Relative Viability (%) 2% PEG
[11] = MTT, formulation alone (no PEG), 5:1 mass ratio, 100 ng/well mRNA for 8 h then 48 h growth, normalized to untreated cells, read-out: Relative Viability (%) No PEG

Structure (SMILES)	Size PDI [1]	Size (nm) [1]	% Encapsulation [2]	Luciferase Expression (RLU) 6 h (HeLa cells [3]; [6])	Luciferase Expression (RLU) 24 h (HeLa cells [3]; [7])	Luciferase Expression (RLU) 6 h (HeLa cells [3]; [8])	Luciferase Expression (RLU) 24 h (HeLa cells [3]; [9])	Observed Luciferase Expression (RLU) for Given Formulation Mass Ratio 2:1 (HeLa cells [4])	Observed Luciferase Expression (RLU) for Given Formulation Mass Ratio 3.5:1 (HeLa cells [4])	Observed Luciferase Expression (RLU) for Given Formulation Mass Ratio 5:1 (HeLa cells [4])	Observed Luciferase Expression (RLU) for Given Formulation Mass Ratio 7.5:1 (HeLa cells [4])	viability at 8 h, 500 ng/well ([5]; Relative Viability (%) 2% PEG)	viability at 8 h, 500 ng/well ([5]; Relative Viability (%) No PEG)	viability at 8 h, 500 ng/well [5, 10]	viability at 8 h, 500 ng/well [5, 11]
CCCCCCCCCCN(CC(N)=O)C(=O)CN(CCCCCCCCCC)C(=O)CN(CCN)C(=O)CN(CCN)C(=O)CN(CCN)C(=O)CN(CCN)C(=O)CN(CCN)C(=O)CN(CCN)C(=O)CN(CCN)C(=O)CN(CCN)C(=O)CNCCN [Compound 16]	1	1486 nm	85.4%	7.33E+00 RLU	1.67E+01 RLU	2.63E+01 RLU	5.00E+00 RLU	1.01E+02 RLU	4.16E+01 RLU	2.55E+01 RLU	1.47E+01 RLU	90.8%	89.4%	–	–
CCCCCCCCCCCCN(CC(N)=O)C(=O)CN(CCCCCCCCCCCC)C(=O)CN(CCc1ccc(OC)cc1)C(=O)CN(CCc1ccc(OC)cc1)C(=O)CN(CCN)C(=O)CN(CCc1ccc(OC)cc1)C(=O)CN(CCc1ccc(OC)cc1)C(=O)CN(CCN)C(=O)CN(CCc1ccc(OC)cc1)C(=O)CN(CCc1ccc(OC)cc1)C(=O)CNCCN [Compound 4]	0.191	326.7 nm	99.0%	1.96E+02 RLU	1.13E+02 RLU	3.16E+02 RLU	3.09E+02 RLU	3.27E+03 RLU	1.32E+03 RLU	7.84E+03 RLU	1.14E+03 RLU	89.7%	90.4%	–	–
CCCCCCCCCCN(CC(N)=O)C(=O)CN(CCCCCCCCCC)C(=O)CN(CCCCCCCCCC)C(=O)CN(CCCCCCCCCC)C(=O)CN(CCc1ccccc1)C(=O)CN(CCc1ccccc1)C(=O)CN(CC1CCNCC1)C(=O)CN(CCc1ccccc1)C(=O)CN(CCc1ccccc1)C(=O)CN(CC1CCNCC1)C(=O)CN(CCc1ccccc1)C(=O)CN(CCc1ccccc1)C(=O)CNCC1CCNCC1 [Compound 31]	0.404	348.5 nm	35.7%	5.84E+02 RLU	2.93E+03 RLU	4.30E+02 RLU	2.63E+02 RLU	2.07E+02 RLU	5.70E+02 RLU	3.77E+03 RLU	2.05E+03 RLU	98.4%	83.8%	–	–

Now from value to molecule, other results behind:

Size PDI [1]	Size (nm) [1]	% Encapsulation [2]	Structure (SMILES)	Luciferase Expression (RLU) 6 h (HeLa cells [3]; [6])	Luciferase Expression (RLU) 24 h (HeLa cells [3]; [7])	Luciferase Expression (RLU) 6 h (HeLa cells [3]; [8])	Luciferase Expression (RLU) 24 h (HeLa cells [3]; [9])	Observed Luciferase Expression (RLU) for Given Formulation Mass Ratio 2:1 (HeLa cells [4])	Observed Luciferase Expression (RLU) for Given Formulation Mass Ratio 3.5:1 (HeLa cells [4])	Observed Luciferase Expression (RLU) for Given Formulation Mass Ratio 5:1 (HeLa cells [4])	Observed Luciferase Expression (RLU) for Given Formulation Mass Ratio 7.5:1 (HeLa cells [4])	viability at 8 h, 500 ng/well ([5]; Relative Viability (%) 2% PEG)	viability at 8 h, 500 ng/well ([5]; Relative Viability (%) No PEG)	viability at 8 h, 500 ng/well [5, 10]	viability at 8 h, 500 ng/well [5, 11]
0.348	448.6 nm	92.4%	CCCCCCCCCCN(CC(N)=O)C(=O)CN(CCc1ccccc1)C(=O)CN(CCc1ccccc1)C(=O)CN(CCN)C(=O)CN(CCc1ccccc1)C(=O)CN(CCc1ccccc1)C(=O)CN(CCN)C(=O)CN(CCc1ccccc1)C(=O)CN(CCc1ccccc1)C(=O)CNCCN [Compound 6]	4.30E+01 RLU	3.60E+01 RLU	1.38E+02 RLU	2.13E+01 RLU	8.18E+01 RLU	8.18E+01 RLU	6.97E+01 RLU	4.56E+01 RLU	–	–	88.9%	88%
0.021	773.3 nm	8.4%	CCCCCCCCCCN(CC(N)=O)C(=O)CN(CCCCCCCCCC)C(=O)CN(CCCCCCCCCC)C(=O)CN(CCCCCCCCCC)C(=O)CN(CCc1ccccc1)C(=O)CN(CCc1ccccc1)C(=O)CN(CCNC)C(=O)CN(CCc1ccccc1)C(=O)CN(CCc1ccccc1)C(=O)CN(CCNC)C(=O)CN(CCc1ccccc1)C(=O)CN(CCc1ccccc1)C(=O)CNCCNC [Compound 25]	3.93E+02 RLU	2.07E+03 RLU	1.81E+03 RLU	7.30E+02 RLU	3.86E+02 RLU	8.41E+03 RLU	5.03E+03 RLU	5.66E+03 RLU	85.9%	77.9%	–	–
0.177	296.7 nm	88.4%	CCCCCCCCCCN(CC(N)=O)C(=O)CN(CCCCCCCCCC)C(=O)CN(CCCCCCCCCC)C(=O)CN(CCc1ccccc1)C(=O)CN(CCc1ccccc1)C(=O)CN(CCN)C(=O)CN(CCc1ccccc1)C(=O)CN(CCc1ccccc1)C(=O)CN(CCN)C(=O)CN(CCc1ccccc1)C(=O)CN(CCc1ccccc1)C(=O)CNCCN [Compound 7]	6.45E+03 RLU	9.71E+03 RLU	2.77E+03 RLU	1.81E+03 RLU	1.61E+04 RLU	1.43E+04 RLU	2.20E+04 RLU	5.92E+03 RLU	–	–	96%	78%
